Results on 27 compounds are retold here after PMC6736568, “Discovery of Novel Anti-cryptosporidial Activities From Natural Products by in vitro High-Throughput Phenotypic Screening” (Frontiers in Microbiology, 2019).

The structures appear in SMILES notation. Counter-ions that a name gives are not always drawn. Like-named read-outs stand apart in the source and are kept apart here.

The test system of data set [1] is HCT-8 cells. As to the kind of experiment: In vitro cytotoxicity MTS assay on host cells. The settings on record: 41 h. The data set is classed as cell-based, human. Here is the method:
The plates were measured for absorbance at 490 nm in 15 min intervals in a SmartReader 96 microplate reader (Accuris, Edison, NJ, United States). Cytotoxicity of a compound was quantified by calculating the half maximal toxic concentration on host cells (TC50). An in vitro safety interval (SI) was calculated by determining the ratio between TC50 and EC50 values (i.e., SI = TC50/EC50).

The subject of data set [2] is HCT-8 host cells (Hs18S).
For data set [3], the system named is Cryptosporidium parvum. As to the kind of experiment: qRT-PCR assay of the growth of C. parvum in vitro in HCT-8 host cells (primary and secondary screening, EC50). It is filed as cell-based. To be noted: Cryptosporidium parvum; for inhibition at 10 µM / inhibition at 3.3 µM: HCT-8; for inhibition at 3.3 µM: secondary screening at 3.3 uM, read-out: % Inhibition (3.3 uM); for EC50: growth of C. parvum in vitro, HCT-8 host cells, 44 h infection.

The nature of data set [4]: in vitro. To be noted: for cytotoxicity at 41 h, 10 µM: human.
Where [5] appears, read: primary screening at 10 uM, read-out: Inhibition (%).
Setting [6] is: primary screening at 10 uM, treated vs control.

In turn, `COc1ccc(C(=O)c2ccc(O)cc2)c(O)c1O` [2,3,4′-Trihydroxy-4-methoxybenzophenone] yielded a TC50 in data set [1] (HCT-8 cells, MTS) above 100 µM. In addition, the “Hs18S ΔCT” value in data set [2] (human, 41 h, 10 μM) came out at 0.10. Further, the inhibition (in general, the drop in the measured response relative to a control, in per cent) at 10 µM in data set [3] (setting [5]) is 83.2%. In addition, in data set [3], the inhibition at 3.3 µM came out at 59% and it took 3.69 µM to reach a half-maximal effect (EC50). Further, the cytotoxicity at 41 h, 10 µM in data set [4] came out at 6.4%.
For `COC(=O)C[C@H]1C(C)(C)[C@@H](O)[C@@H]2CC3=C4C=C(OC)O[C@@H](c5ccoc5)[C@]4(C)CCC3[C@@]1(C)C2=O` (stereo partly drawn) [3-Deoxo-3beta-hydroxy-mexicanolide 16-enol ether], the TC50 in data set [1] (HCT-8 cells, MTS) was above 100 µM. Moreover, the “Hs18S ΔCT” value in data set [2] (human, 41 h, 10 μM) is reported as -0.49. Further, the inhibition at 10 µM in data set [3] (setting [5]) turned out to be 90%. Also, in data set [3], the inhibition at 3.3 µM turned out to be 71% and a half-maximal effect (EC50) was put at 3.94 µM. For the same compound, the cytotoxicity at 41 h, 10 µM in data set [4] was -40.1%.
In data set [1] (human), `O=c1cc(-c2ccccc2)oc2cc(O)c(O)c(O)c12` [Baicalein] came in with a TC50 above 100 µM. For the same compound, the “Hs18S ΔCT” value in data set [2] (human, 41 h, 10 μM) is 0.10. For the same compound, in data set [3] (setting [5]), the inhibition at 10 µM is 81.3%. Besides, in data set [3], the inhibition at 3.3 µM is 66% and the midpoint of the response, the EC50, lay at 0.981 µM. Also, the cytotoxicity at 41 h, 10 µM in data set [4] amounted to 6.7%.
`CC1(C)C(=O)C=C[C@@]2(C)C1=C(O)C(=O)[C@]1(C)[C@@H]2CC[C@@]2(C)[C@H](c3ccoc3)C[C@H]3O[C@]321` [Cedrelone] showed a TC50 in data set [1] (human) of 3.59 µM. Moreover, the “Hs18S ΔCT” value in data set [2] (human, 41 h, 10 μM) worked out at 1.38. Further, the inhibition at 10 µM in data set [3] (setting [5]) was 99.5%. Also, in data set [3], the EC50 – broadly, the concentration giving half of the maximal effect – stood at 0.267 µM. For the same compound, the cytotoxicity at 41 h, 10 µM in data set [4] was found to be 61.7%.
`CC[C@]1(O)C[C@@H]2CN(CCc3c([nH]c4ccccc34)[C@@](C(=O)OC)(c3cc4c(cc3OC)N(C)[C@H]3[C@@](O)(C(=O)OC)[C@H](OC(C)=O)[C@]5(CC)C=CCN6CC[C@]43[C@@H]65)C2)C1` [VINBLASTINE SULFATE]: the “Hs18S ΔCT” value in data set [2] (human, 41 h, 10 μM) was 0.81. Moreover, in data set [3] (setting [5]), the inhibition at 10 µM was 71.7%. Further, the inhibition at 3.3 µM in data set [3] came out at 67%. Further, in data set [4], the cytotoxicity at 41 h, 10 µM is 43%.
In the case of `CC[C@]12CCCN3CCc4c(n(c5ccccc45)[C@@](O)(C(=O)OC)C1)[C@@H]32` [VINCAMINE], the “Hs18S ΔCT” value in data set [2] (human, 41 h, 10 μM) was 0.12. Moreover, the inhibition at 10 µM in data set [3] (setting [5]) is -20.8%. In addition, the cytotoxicity at 41 h, 10 µM in data set [4] worked out at 8.2%.
In the same order, the values of `COc1cc(C/C=C/c2ccccc2)c(OC)cc1O` [VIOLASTYRENE] are -0.30, -23.6% and -23.3%.
With `COc1c2ccoc2cc2oc(C)cc(=O)c12` [VISNAGIN], the “Hs18S ΔCT” value in data set [2] (human, 41 h, 10 μM) is -0.27. Moreover, the inhibition at 10 µM in data set [3] (setting [5]) came out at 15.1%. In data set [4], the cytotoxicity at 41 h, 10 µM is -20.7%.
On to `COC(=O)/C(=C1/OC(=O)C(c2ccccc2)=C1O)c1ccccc1` [VULPINIC ACID], for which the “Hs18S ΔCT” value in data set [2] (human, 41 h, 10 μM) is reported as 0.64. Besides, the inhibition at 10 µM in data set [3] (setting [5]) was -77.9%. Besides, the cytotoxicity at 41 h, 10 µM in data set [4] came to 36%.
For `O=c1c2ccccc2oc2ccccc12` [XANTHONE] the same measures were 0.13, 0.45% and 8.9%.
In the case of `Nc1nc(=O)c2[nH]c(=O)cnc2[nH]1` [XANTHOPTERIN], the “Hs18S ΔCT” value in data set [2] (human, 41 h, 10 μM) came out at 0.47. The inhibition at 10 µM in data set [3] (setting [5]) amounted to 22.7%. Moreover, in data set [4], the cytotoxicity at 41 h, 10 µM was determined as 27.9%.
For `COc1cc(O)c(C(C)=O)c(OC)c1` [XANTHOXYLIN] the same measures were 0.08, -20.7% and 5.4%.
Take `CC1(C)C=Cc2cc3ccc(=O)oc3cc2O1` [XANTHYLETIN]: the “Hs18S ΔCT” value in data set [2] (setting [6]) stood at 0.12. In data set [3] (setting [5]), the inhibition at 10 µM was determined as 1.74%. Further, in data set [4], the cytotoxicity at 10 µM worked out at 8.1%.
With `COC(=O)CC1C(C)(C)C(OC(C)=O)[C@@H]2[C@@H](OC(C)=O)[C@]34O[C@@]2(O)[C@]1(C)C3CC[C@]1(C)C4=CC(=O)O[C@H]1c1ccoc1` (stereo partly shown) [XYLOCARPUS A], the “Hs18S ΔCT” value in data set [2] (human, 41 h, 10 μM) was -0.48. The inhibition at 10 µM in data set [3] (setting [5]) is -11.9%. The cytotoxicity at 41 h, 10 µM in data set [4] was -39.2%.
Consider `O=C(O)c1cc(O)c2cccc(O)c2n1` [X[…]], for which the “Hs18S ΔCT” value in data set [2] (setting [6]) is listed as -0.32. Besides, the inhibition at 10 µM in data set [3] was 20.3%. Further, the cytotoxicity at 10 µM in data set [4] was -24.4%.
With `COC(=O)[C@@H]1[C@H]2C[C@H]3c4[nH]c5ccccc5c4CCN3C[C@@H]2CC[C@@H]1O` [YOHIMBINE HYDROCHLORIDE], the “Hs18S ΔCT” value in data set [2] (human, 41 h, 10 μM) is -0.45. The inhibition at 10 µM in data set [3] (setting [5]) turned out to be 5.49%. The cytotoxicity at 41 h, 10 µM in data set [4] is -36.5%.
Take `COC(=O)[C@@H]1C[C@H](OC(C)=O)C(=O)[C@H]2[C@@]1(C)CC[C@H]1C(=O)O[C@H](c3ccoc3)C[C@]21C` [[…]]: the “Hs18S ΔCT” value in data set [2] (setting [6]) was found to be 0.53. Moreover, the inhibition at 10 µM in data set [3] (setting [5]) worked out at 16.7%. The cytotoxicity at 10 µM in data set [4] was determined as 30.5%.
Regarding `C[N+]12CC[C@@]34c5ccccc5N5C(=O)C[C@@H]6OCC=C(C1)[C@H](C[C@@H]32)[C@@H]6[C@H]54` (stereo partly shown) [[…]], the “Hs18S ΔCT” value in data set [2] (setting [6]) is recorded as 0.58. Also, in data set [3] (setting [5]), the inhibition at 10 µM was -6.9%. Further, the cytotoxicity at 10 µM in data set [4] was determined as 33.3%.
In the same order, the values of `Cc1c(C)c2c(c(C)c1O)CCC(C)(CCCC(C)CCCC(C)CCCC(C)C)O2` (stereo not drawn) [alpha-TOCHOPHEROL] are 0.21, -14.7% and 13.8%.
On to `CC(=O)Oc1c(C)c(C)c2c(c1C)CCC(C)(CCCC(C)CCCC(C)CCCC(C)C)O2` (stereo not drawn) [alpha-TOCHOPHERYL ACETATE], for which the “Hs18S ΔCT” value in data set [2] (human, 41 h, 10 μM) is -0.21. Besides, the inhibition at 10 µM in data set [3] (setting [5]) was -13.6%. Further, the cytotoxicity at 41 h, 10 µM in data set [4] is -15.8%.
In the same order, the values of `CC(=O)O[C@H]1CC[C@]2(C)[C@H]3CC=C4[C@@H]5CC(C)(C)CC[C@]5(C)CC[C@@]4(C)[C@]3(C)CC[C@H]2C1(C)C` [beta-AMYRIN ACETATE] are 0.01, 11.3% and 0.5%.
On to `CC1(C)CC[C@]2(C)CC[C@]3(C)C(=CC[C@@H]4[C@@]5(C)CC[C@H](O)C(C)(C)[C@@H]5CC[C@]43C)[C@@H]2C1` [beta-AMYRIN], for which the “Hs18S ΔCT” value in data set [2] (setting [6]) was -0.12. The inhibition at 10 µM in data set [3] (setting [5]) is -38.2%. In addition, the cytotoxicity at 10 µM in data set [4] is -8.3%.
Regarding `CC1=C(/C=C/C(C)=C/C=C/C(C)=C/C=C/C=C(C)/C=C/C=C(C)/C=C/C2=C(C)CCCC2(C)C)C(C)(C)CCC1` [beta-CAROTENE], the “Hs18S ΔCT” value in data set [2] (human, 41 h, 10 μM) stood at 0.04. In data set [3] (setting [5]), the inhibition at 10 µM was -34.8%. Besides, the cytotoxicity at 41 h, 10 µM in data set [4] turned out to be 2.8%.
For `CC12CCCC(O)(C1)C1CC(C)(C)C1CC2` (stereo not drawn) [beta-CARYOPHYLLENE ALCOHOL] the same measures were 0.03, 24.2% and 1.9%.
`CC[C@H](CC[C@@H](C)[C@H]1CC[C@H]2[C@@H]3CC=C4C[C@@H](O)CC[C@]4(C)[C@H]3CC[C@]12C)C(C)C` [beta-SITOSTEROL]: the “Hs18S ΔCT” value in data set [2] (setting [6]) is recorded as 0.43. Further, the inhibition at 10 µM in data set [3] (setting [5]) amounted to 91.7%. Further, in data set [3], the inhibition at 3.3 µM stood at 20%. Further, the cytotoxicity at 10 µM in data set [4] turned out to be 25.8%.
With `NC(C(=O)O)C(O)C(=O)O` (stereo not drawn) [d,l-threo-3-HYDROXYASPARTIC ACID], the “Hs18S ΔCT” value in data set [2] (human, 41 h, 10 μM) worked out at 0.16. Moreover, in data set [3] (setting [5]), the inhibition at 10 µM turned out to be 17.8%. For the same compound, the cytotoxicity at 41 h, 10 µM in data set [4] stood at 10.7%.
For `C=C(C)[C@H]1CC=C(C)CC1` [d-LIMONENE] the same measures were -0.21, -6.54% and -15.7%.
